Test results published in publication PMC10202359, “Nicotinamide N-methyltransferase (NNMT) regulates the glucocorticoid signaling pathway during the early phase of adipogenesis” (Scientific Reports, 2023).
Where two headings read alike, the source gives them in different places.

Experiments:
EZH2 Complex = target: T1, EZH2 Complex (Homo sapiens, UniProt Q15910); experiment: Methyltransferase Hot Spot radioisotope assay, EZH2 Complex; type: biochemical; conditions: 10-dose, threefold dilution; CC-410 from 300 μM, control from 100 μM; substrate Core Histone
T1 construct: purchased Reaction Biology Corporation
T1 sequence (Q15910 whole entry): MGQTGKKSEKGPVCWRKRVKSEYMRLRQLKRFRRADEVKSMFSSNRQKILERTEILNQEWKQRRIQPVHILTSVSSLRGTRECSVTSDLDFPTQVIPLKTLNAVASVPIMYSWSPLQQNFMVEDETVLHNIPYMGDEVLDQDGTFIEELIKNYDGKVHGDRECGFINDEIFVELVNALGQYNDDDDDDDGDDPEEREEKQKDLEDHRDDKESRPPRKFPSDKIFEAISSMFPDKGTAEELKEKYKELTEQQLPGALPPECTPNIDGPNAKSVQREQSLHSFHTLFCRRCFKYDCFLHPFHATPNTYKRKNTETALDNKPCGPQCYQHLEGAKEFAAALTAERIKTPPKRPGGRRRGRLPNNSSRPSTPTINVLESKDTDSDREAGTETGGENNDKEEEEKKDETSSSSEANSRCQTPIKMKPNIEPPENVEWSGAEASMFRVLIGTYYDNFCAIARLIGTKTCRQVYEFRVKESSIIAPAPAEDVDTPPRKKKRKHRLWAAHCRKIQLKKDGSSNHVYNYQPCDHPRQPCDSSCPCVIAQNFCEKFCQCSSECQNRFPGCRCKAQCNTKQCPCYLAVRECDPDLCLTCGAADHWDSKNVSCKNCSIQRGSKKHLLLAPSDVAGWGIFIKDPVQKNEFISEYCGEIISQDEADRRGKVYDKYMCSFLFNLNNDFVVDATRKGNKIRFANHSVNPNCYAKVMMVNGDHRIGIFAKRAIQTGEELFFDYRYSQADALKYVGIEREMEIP
T1 sequence (O75530 whole entry partner): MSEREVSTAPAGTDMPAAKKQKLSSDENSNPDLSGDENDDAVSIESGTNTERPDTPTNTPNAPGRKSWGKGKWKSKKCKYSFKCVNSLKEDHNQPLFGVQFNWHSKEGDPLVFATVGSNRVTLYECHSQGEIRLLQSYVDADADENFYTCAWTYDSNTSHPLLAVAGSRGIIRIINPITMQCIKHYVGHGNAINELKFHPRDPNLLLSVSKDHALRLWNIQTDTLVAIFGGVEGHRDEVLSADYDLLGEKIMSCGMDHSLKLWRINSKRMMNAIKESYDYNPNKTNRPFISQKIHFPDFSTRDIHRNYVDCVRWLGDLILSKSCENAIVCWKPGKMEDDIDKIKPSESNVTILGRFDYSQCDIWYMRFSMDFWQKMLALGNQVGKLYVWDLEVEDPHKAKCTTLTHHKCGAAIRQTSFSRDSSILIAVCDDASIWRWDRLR
T1 sequence (Q15022 whole entry partner): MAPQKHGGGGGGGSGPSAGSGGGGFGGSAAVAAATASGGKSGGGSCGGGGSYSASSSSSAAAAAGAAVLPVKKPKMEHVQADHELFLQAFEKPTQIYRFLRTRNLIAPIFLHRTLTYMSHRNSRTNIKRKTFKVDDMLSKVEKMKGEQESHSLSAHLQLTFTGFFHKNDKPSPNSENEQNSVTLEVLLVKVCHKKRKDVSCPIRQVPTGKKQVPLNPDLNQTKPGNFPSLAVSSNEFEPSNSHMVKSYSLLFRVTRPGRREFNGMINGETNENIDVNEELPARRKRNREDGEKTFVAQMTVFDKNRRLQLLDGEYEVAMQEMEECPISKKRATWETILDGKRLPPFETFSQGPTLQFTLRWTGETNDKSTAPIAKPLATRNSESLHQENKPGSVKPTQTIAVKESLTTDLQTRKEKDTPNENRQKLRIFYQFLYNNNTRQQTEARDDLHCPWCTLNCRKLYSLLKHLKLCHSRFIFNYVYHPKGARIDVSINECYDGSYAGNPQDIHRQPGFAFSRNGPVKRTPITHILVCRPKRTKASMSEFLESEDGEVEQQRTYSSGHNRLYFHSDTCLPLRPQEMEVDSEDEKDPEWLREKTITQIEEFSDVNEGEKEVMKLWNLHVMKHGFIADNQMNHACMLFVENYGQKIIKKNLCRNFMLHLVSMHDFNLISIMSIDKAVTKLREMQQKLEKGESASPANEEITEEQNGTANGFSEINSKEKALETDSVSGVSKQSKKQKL
T1 sequence (Q09028 whole entry partner): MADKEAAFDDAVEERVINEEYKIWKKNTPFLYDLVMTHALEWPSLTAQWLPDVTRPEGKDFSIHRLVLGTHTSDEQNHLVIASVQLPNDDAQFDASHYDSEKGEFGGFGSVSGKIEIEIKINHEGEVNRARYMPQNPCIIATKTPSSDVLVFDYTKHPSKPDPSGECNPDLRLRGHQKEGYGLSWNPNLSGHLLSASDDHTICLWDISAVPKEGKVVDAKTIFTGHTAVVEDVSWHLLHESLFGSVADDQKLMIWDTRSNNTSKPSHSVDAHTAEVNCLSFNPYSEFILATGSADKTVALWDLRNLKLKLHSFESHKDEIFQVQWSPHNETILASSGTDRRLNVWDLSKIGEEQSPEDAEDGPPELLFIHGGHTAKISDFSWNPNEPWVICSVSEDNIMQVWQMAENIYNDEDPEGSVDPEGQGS
T1 sequence (Q6ZN18 whole entry partner): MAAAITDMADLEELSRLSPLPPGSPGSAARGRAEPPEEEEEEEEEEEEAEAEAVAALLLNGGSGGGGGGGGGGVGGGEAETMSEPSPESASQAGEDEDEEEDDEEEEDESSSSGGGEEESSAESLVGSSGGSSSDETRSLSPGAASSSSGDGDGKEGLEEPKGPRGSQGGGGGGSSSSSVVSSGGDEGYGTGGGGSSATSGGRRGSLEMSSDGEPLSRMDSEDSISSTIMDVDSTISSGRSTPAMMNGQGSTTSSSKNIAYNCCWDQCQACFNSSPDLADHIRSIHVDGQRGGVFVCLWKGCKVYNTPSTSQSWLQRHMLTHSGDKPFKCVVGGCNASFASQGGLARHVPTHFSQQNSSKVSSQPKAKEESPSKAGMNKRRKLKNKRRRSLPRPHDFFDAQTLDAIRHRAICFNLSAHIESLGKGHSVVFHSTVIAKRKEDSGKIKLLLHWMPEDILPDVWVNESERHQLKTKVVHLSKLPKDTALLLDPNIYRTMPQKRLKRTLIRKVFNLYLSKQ
Protocol: (§1) CC-410 was screened in biochemical assays for activity against a panel of 11 methyltransferases (MT) by using the radioisotope (3H-AdoMet) based MT Hot Spot Assay. All the assays were performed by Reaction Biology Corporation (RBC, Malven, PA, USA). Briefly CC-410 was incubated with the selected MTs, corresponding substrates, and radiolabeled SAM (S-Adenosyl-L-[methyl-3 H]methionine). The specific MTs assessed, and the corresponding substrates are as follows: DNMT1- Poly dl-dC, DNMT3a- Lambda DNA, DNMT3b- Lambda DNA, DOT1L- Nucleosomes, EZH2 Complex- Core Histone, METTL21A- HSPA8-[CTD], NRMT1- RCC1, PRMT3- Histone H4, PRMT5/MEP50- Histone H2A, SET1b -Core Histone Complex and SMYD2- Nucleosomes. Reaction mixtures were incubated and spotted onto filter papers, which were then washed to remove unreacted SAM, leaving the bound radiolabeled product. Detection of the radiolabeled, methylated product was performed via a nanoliter-scale radioisotope filter binding platform. […] For each assay, control compounds were included as positive controls for enzyme function and assay reproducibility. […] IC50 was calculated by non-linear least square fitting dose–response curve.

METTL21A = METTL21A (Homo sapiens, UniProt Q8WXB1); experiment: Methyltransferase Hot Spot radioisotope assay, METTL21A; type: biochemical; conditions: 10-dose, threefold dilution; CC-410 from 300 μM, control from 100 μM; substrate HSPA8-[CTD]
Sequence of METTL21A (Q8WXB1 whole entry, species assumed): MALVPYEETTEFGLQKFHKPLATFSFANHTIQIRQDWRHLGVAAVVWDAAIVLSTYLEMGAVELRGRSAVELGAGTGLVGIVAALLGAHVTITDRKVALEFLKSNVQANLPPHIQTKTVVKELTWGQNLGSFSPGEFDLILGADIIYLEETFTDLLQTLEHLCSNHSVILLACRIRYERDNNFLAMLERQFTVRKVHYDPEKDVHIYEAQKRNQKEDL
Protocol: as §1, with “The specific MTs assessed, and the corresponding substrates are as follows: DNMT1- Poly dl-dC, DNMT3a- Lambda DNA, DNMT3b- Lambda DNA, DOT1L- Nucleosomes, EZH2 Complex- Core Histone, METTL21A- HSPA8-[CTD], NRMT1- RCC1, PRMT3- Histone H4, PRMT5/MEP50- Histone H2A, SET1b -Core Histone Complex and SMYD2- Nucleosomes.” left out

human NNMT = target: T2, human NNMT (Homo sapiens, UniProt P40261); experiment: hNNMT enzymatic modulation, RapidFire SPE LC/MS assay (Lilly); type: biochemical
T2 sequence (P40261 1-264): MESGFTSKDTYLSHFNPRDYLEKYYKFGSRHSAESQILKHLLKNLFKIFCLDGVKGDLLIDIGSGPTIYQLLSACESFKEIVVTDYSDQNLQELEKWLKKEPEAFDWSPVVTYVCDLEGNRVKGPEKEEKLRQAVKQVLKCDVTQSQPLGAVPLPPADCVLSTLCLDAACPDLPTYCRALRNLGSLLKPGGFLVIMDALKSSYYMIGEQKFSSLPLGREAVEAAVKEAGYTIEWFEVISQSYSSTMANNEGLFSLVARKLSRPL

PRMT3 = PRMT3 (Homo sapiens, UniProt O60678); experiment: Methyltransferase Hot Spot radioisotope assay, PRMT3; type: biochemical; conditions: text and Fig. 4D curve fit; read-out: IC50 for PRMT3
Sequence of PRMT3 (O60678 whole entry, species assumed): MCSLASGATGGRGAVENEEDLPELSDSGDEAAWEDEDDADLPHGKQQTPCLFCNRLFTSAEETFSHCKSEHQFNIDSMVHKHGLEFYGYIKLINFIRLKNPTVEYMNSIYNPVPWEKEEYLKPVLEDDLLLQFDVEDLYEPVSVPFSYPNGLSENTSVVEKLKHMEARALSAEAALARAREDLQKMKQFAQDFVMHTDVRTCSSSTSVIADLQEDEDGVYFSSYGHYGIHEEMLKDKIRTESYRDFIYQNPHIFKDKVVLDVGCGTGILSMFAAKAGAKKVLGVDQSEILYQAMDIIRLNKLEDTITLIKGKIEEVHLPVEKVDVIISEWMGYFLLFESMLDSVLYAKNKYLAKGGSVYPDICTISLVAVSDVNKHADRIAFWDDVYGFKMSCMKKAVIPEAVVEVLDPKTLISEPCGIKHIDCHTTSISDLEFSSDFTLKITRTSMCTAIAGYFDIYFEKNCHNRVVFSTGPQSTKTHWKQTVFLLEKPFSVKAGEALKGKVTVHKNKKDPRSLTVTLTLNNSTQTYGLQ
Protocol: as §1, with “The specific MTs assessed, and the corresponding substrates are as follows: DNMT1- Poly dl-dC, DNMT3a- Lambda DNA, DNMT3b- Lambda DNA, DOT1L- Nucleosomes, EZH2 Complex- Core Histone, METTL21A- HSPA8-[CTD], NRMT1- RCC1, PRMT3- Histone H4, PRMT5/MEP50- Histone H2A, SET1b -Core Histone Complex and SMYD2- Nucleosomes.” left out

[1] = Lilly Open Innovation Drug Discovery high throughput screening
Excerpt: CC-410 chemical structure was initially submitted to the Open Innovation Drug Discovery program[39] (Lilly Research Laboratories, Eli Lilly and Company, Indianapolis, USA), and it was selected for its novelty and drug-like properties, based on cheminformatic evaluation. Briefly, the submitted molecular structure was firstly processed based on the Lilly Medical Chemistry Rules, which are aimed at identifying and eventually excluding from screening those compounds that may interfere with biological assays. Next, structure-based filters, including MW, cLogP, solubility and toxicity among others were analyzed to select molecules with high druggable features. Additionally, the compound was also filtered based on the number of heavy atoms, number of rings, number of aromatic rings, ring size and other physicochemical properties. Solubility and permeability of the compound were also considered for the screening. For molecules passing the cheminformatic evaluation a substance check and comparison with known drugs (both Lilly and PubChem collections) was performed in order to select for novelty. Once the molecule passed this selection it was physically submitted to be tested with a high throughput screening study, querying the activity of the molecule against a wide variety of possible therapeutic targets.

COC(=O)CCC(C)C1CCC2C3C(N)CC4CC(OC(C)=O)CCC4(C)[C@H]3CC(N)C12C (stereo in doubt) [CC-410, Methyl-(4S)-4-((3S,5S,7S,8S,10R,12R,13S,14R,17S)-3-acetoxy-7,12-diamino-10,13-dimethylhexadecahydro-1H-cyclopenta[a]phenanthren-17-yl) pentanoate]
IC50* (M) EZH2 Complex (EZH2 Complex): no inhibition or compound activity that could not be fitted to an IC50 curve | IC50* (M) METTL21A (METTL21A): no inhibition or compound activity that could not be fitted to an IC50 curve | IC50 (human NNMT; MNAM product readout, LC/MS, Fig. 4B, read-out: hNNMT MNAN Rel IC50): 1640 nM | IC50 (human NNMT; automated solid-phase extraction and LC-MS, read-out: IC50 against human NNMT): 1600 nM | IC50 (human NNMT; hNNMT SAH Rel IC50, SAH product readout, LC/MS, Fig. 4B): 1700 nM | IC50 (PRMT3): 104000 nM | activity against a wide variety of possible therapeutic targets [1]: exclusive inhibitory activity against human NNMT
